Measurements published in US20230357162A1, “COMPOUNDS, COMPOSITIONS AND METHODS” (Denali Therapeutics Inc., priority 2020, published 2023).
Where a name gives a salt, the structure may show the parent alone.

System: IL-1β secretion, THP-1 cells
Assay: IL-1β secretion assay in PMA-differentiated THP-1 cells stimulated with LPS and nigericin (ELISA readout)
Type: cell-based
Conditions: 25 ng/mL LPS then nigericin
Protocol: Compounds as provided herein were tested in the following assay. Cell culture medium employed contained RPMI 1640 medium (89%), FBS (10%), Pen/Strep (1%), and 2-mercaptoethanol (0.05 mM). Freezing medium was made up of 90% FBS and 10% DMSO. THP-1 cells were removed from the liquid nitrogen and placed into a 37° C. water bath to thaw, until signs of ice dissipated. The cells were then added to 9 mL of warm cell culture medium and centrifuged for 5 minutes at 1000 rpm. The supernatant was discarded, and the cells were resuspended in new cell culture medium. THP-1 cells were then split and cultured in the cell culture medium, being passaged every 2-3 days with the cell density will be maintained between 5×10^5 and 1.5×10^6 viable cells/mL.
PMA was dissolved in DMSO to make a stock solution at 5 mg/ml and stored in 10 µl aliquots at -20° C. for single use. PMA is added to normal growth medium. LPS was diluted with 1 mL of water solution to provide a 1 mg/mL stock solution and stored in 15 µl aliquots at -20° C. for single use. Nigericin is diluted in ice cold 100% ethanol to 5 mg/ml (6.7 mM) and stored in 75 µL aliquots at -20° C. for single use. Serum-free media contains RPMI 1640 medium (99%), Pen/Strep (1%), and 2-mercaptoethanol (0.05 mM). The two control conditions used to qualify and normalize test compound dose-response curves were as follows: High Control = 25 ng/mL LPS, 5 µM Nigericin, 0.5% DMSO, Low Control = 25 ng/mL, LPS, 0.5% DMSO.
THP-1 cells were diluted to provide a suspension at a concentration of 1.0×10^6 cells/mL with the total volume of suspension required to enable the desired number of assay plates. The growth media was supplemented with PMA (5 ng/mL final concentration) and the cells were incubated at 37° C. under a humidified atmosphere of 5% CO2 for 40 h.
All media was carefully aspirated from each culture flask. The cells were washed carefully with 1x DPBS. The cells were then briefly digested with trypsin LE for 5 minutes at 23° C. and immediately resuspended in cell growth media. After resuspension, the cells were centrifuged at 1000 rpm for 3 minutes and the supernatant was discarded. The cells were resuspended in DPBS and once again centrifuged at 1000 rpm for 5 minutes. The supernatant was discarded and the cell pellet was resuspended in serum-free media supplemented with LPS (25 ng/mL final concentration) to enable the distribution of 30 K THP-1 cells within 45 µL of media into each well of 384-well PDL-coated plates. The 384-well plates were then incubated at 37° C. under a humidified atmosphere of 5% CO2 for 2 h. Following this period, test compounds were dispensed by Tecan across the desired concentration range with all wells normalized to a final 0.5 % DMSO concentration. The plates were then then incubated at 37° C. under a humidified atmosphere of 5% CO2 for 1 h. Following this period, 5 µL of the […] nigericin stock solution was added to each of the appropriate wells and plates were centrifuged at 1000 rpm for 30 seconds. The plates were the immediately reintroduced to the incubator at 37° C. under a humidified atmosphere of 5% CO2 for 2 h. After this time, 35 µL/well of supernatant was collected and transferred into v-bottom plate and centrifuged at 1000 rpm for 1 minute. These supernatant aliquots were analyzed using an IL-Iβ detection kit as described below. If needed, the test samples could be snap frozen and stored at -80° C. until analyzed.
To prepare each ELISA plate, capture antibody (mAb Mt175) was diluted with PBS to a final concentration of 2 µg/mL and then 20 µL of this solution was added to each well of the ELISA plate. Each plate was allowed to incubate overnight at 4° C. The next day, the capture antibody solution was removed and discarded. Each ELISA plate was washed 4 times with PBST followed by the addition of 25 µL/well of blocking buffer (Licor-927-40010) supplemented with 0.1% Tween 20. Each ELISA plate was then allowed to incubate for 1 hour at 23° C. […]

[1] = Homo sapiens, THP-1, inhibition of IL-1β secretion, class column of Table 3
[2] = Homo sapiens, THP-1, inhibition of IL-1β secretion, numeric column of Table 3

| IC50 [1] | IC50 [2] | IC50 (inhibition of IL-1β secretion, numeric column of Table 3) | SMILES |
| --- | --- | --- | --- |
| < 10 µM | 3.66 µM |  | CC(C)c1nn(C(C)C(=O)Nc2ncncc2F)c(=O)c2ccc(Br)cc12 (stereo not drawn) [Example 14, 2-(6-bromo-1-oxo-4-propan-2-ylphthalazin-2-yl)-N-(5-fluoropyrimidin-4-yl)propanamide] |
| < 10 µM | 3.35 µM |  | CC(C)c1nn(CC(=O)NC2CCC(F)(F)C2)c(=O)c2ccc(Br)cc12 (stereo not drawn) [Example 42, 2-(6-bromo-1-oxo-4-propan-2-ylphthalazin-2-yl)-N-(3,3-difluorocyclopentyl)acet amide] |
| < 10 µM | 0.144 µM |  | CC(C)c1nn(CC(=O)Nc2ncncc2F)c(=O)c2ccc(Br)c(F)c12 [Example 9, 2-(6-Bromo-5-fluoro-4-isopropyl-1-oxophthalazin-2(1H)-yl)-N-(5-fluoropyrimidin-4-yl)acetamide] |
| < 10 µM | 1.03 µM |  | CC(C)c1nn(CC(=O)N[C@@H]2CCCN(CC(F)(F)F)C2)c(=O)c2ccc(Br)cc12 [Example 7, (R)-2-(6-Bromo-4-isopropyl-1-oxophthalazin-2(1H)-yl)-N-(1-(2,2,2-trifluoroethyl)piperidin-3-yl)acetamide] |
| < 10 µM | 0.68 µM |  | CCOc1nn(CC(=O)Nc2ncc(F)cn2)c(=O)c2ccc(Br)cc12 [Example 154, 2-(6-bromo-4-ethoxy-1-oxophthalazin-2-yl)-N-(5-fluoropyrimidin-2-yl)acetamide] |
| < 10 µM | 0.515 µM |  | O=C(Cn1nc(OC2CC2)c2cc(C(F)(F)F)ccc2c1=O)Nc1ncc(F)cn1 [Example 174, 2-(4-cyclopropoxy-1-oxo-6-(trifluoromethyl)phthalazin-2(1H)-yl)-N-(5-fluoropyrimidin-2-yl)acetamide] |
| < 10 µM | 0.529 µM |  | CC(C)c1nn(CC(=O)Nc2ncccc2F)c(=O)c2ccc(Br)cc12 [Example 35, 2-(6-bromo-1-oxo-4-propan-2-ylphthalazin-2-yl)-N-(3-fluoropyridin-2-yl)acetamide] |
| < 10 µM | 0.796 µM |  | CC(C)c1nn(CC(=O)Nc2ccc(C3CC3)cn2)c(=O)c2ccc(Br)cc12 [Example 111, 2-(6-bromo-1-oxo-4-propan-2-ylphthalazin-2-yl)-N-(5-cyclopropylpyridin-2-yl)acetamide] |
| < 10 µM | 4.27 µM |  | O=C(Cn1nc(OC2CC2)c2cc(Br)ccc2c1=O)N[C@@H]1CCCNC1 [Example 176, 2-(6-bromo-4-cyclopropyloxy-1-oxophthalazin-2-yl)-N-[(3R)-piperidin-3-yl]acetamide HCl salt] |
| < 10 µM | 0.087 µM |  | COc1nn(CC(=O)Nc2ncc(F)cn2)c(=O)c2ccc(Br)c(F)c12 [Example 140, 2-(6-bromo-5-fluoro-4-methoxy-1-oxophthalazin-2-yl)-N-(5-fluoropyrimidin-2-yl)acetamide] |
| < 10 µM | 0.14 µM |  | O=C(Cn1nc(OC2CC2)c2cc(Br)ccc2c1=O)N[C@@H]1CCCN(C2CC2)C1 [Example 178] |
| < 10 µM | 0.138 µM |  | CC(C)c1nn(CC(=O)Nc2ncncc2F)c(=O)c2ccc(C(F)(F)F)nc12 [Example 24, N-(5-fluoropyrimidin-4-yl)-2-[5-oxo-8-propan-2-yl-2-(trifluoromethyl)pyrido[2,3-d]pyridazin-6-yl]acetamide] |

The remaining lines, values behind:

| SMILES | IC50 [1] | IC50 [2] | IC50 (inhibition of IL-1β secretion, numeric column of Table 3) |
| --- | --- | --- | --- |
| N#Cc1cnc(NC(=O)Cn2nc(C(F)F)c3c(F)c(Br)ccc3c2=O)c(F)c1 [Example 28, 2-[6-bromo-4-(difluoromethyl)-5-fluoro-1-oxophthalazin-2-yl]-N-(5-cyano-3-fluoropyridin-2-yl)acetamide] | < 10 µM | 0.307 µM |  |
| COc1nn(CC(=O)Nc2ncc(F)cn2)c(=O)c2ccc(C(F)(F)F)cc12 [Example 146, N-(5-fluoropyrimidin-2-yl)-2-[4-methoxy-1-oxo-6-(trifluoromethyl)phthalazin-2-yl]acetamide] | < 10 µM | 0.461 µM |  |
| CCN1CCOCC(NC(=O)Cn2nc(C(C)C)c3cc(Br)ccc3c2=O)C1 (stereo not drawn) [Example 159, 2-(6-bromo-1-oxo-4-propan-2-ylphthalazin-2-yl)-N-(4-ethyl-1,4-oxazepan-6-yl)acetamide] | < 10 µM | 4.76 µM |  |
| O=C(Cn1nc(C(F)F)c2cc(Br)ccc2c1=O)Nc1ncc(F)cn1 [Example 103, 2-[6-bromo-4-(difluoromethyl)-1-oxophthalazin-2-yl]-N-(5-fluoropyrimidin-2-yl)acetamide] | < 10 µM | 0.265 µM |  |
| CC(C)c1nn(CC(=O)Nc2ncncc2F)c(=O)c2ccc(OC(F)(F)F)cc12 [Example 15, N-(5-fluoropyrimidin-4-yl)-2-[1-oxo-4-propan-2-yl-6-(trifluoromethoxy)phthalazin-2-yl]acetamide] | < 10 µM | 6.27 µM |  |
| CC(C)c1nn(CC(=O)NCC2CCC2)c(=O)c2ccc(Br)cc12 [Example 127, 2-(6-bromo-1-oxo-4-propan-2-ylphthalazin-2-yl)-N-(cyclobutylmethyl)acetamide] | < 10 µM | 1.05 µM |  |
| COc1nn(CC(=O)Nc2ncc(F)cn2)c(=O)c2ccc(Br)cc12 [Example 32, 2-(6-bromo-4-methoxy-1-oxophthalazin-2-yl)-N-(5-fluoropyrimidin-2-yl)acetamide] | < 10 µM | 0.128 µM |  |
| COCCOc1nn(CC(=O)Nc2ncc(F)cn2)c(=O)c2ccc(Br)cc12 [Example 163] | < 10 µM | 3.77 µM |  |
| O=C(Cn1nc([C@H]2C[C@H]2F)c2cc(Br)ccc2c1=O)Nc1ncc(F)cn1 (single isomer, unassigned) [Example 165, 2-[6-bromo-4-[2-cis-fluorocyclopropyl]-1-oxophthalazin-2-yl]-N-(5-fluoropyrimidin-2-yl)acetamide] | < 10 µM |  | 0.613 µM |
| CC(C)c1nn(CC(=O)Nc2ncncc2F)c(=O)c2cc(F)c(Br)cc12 [Example 85, 2-(6-bromo-7-fluoro-1-oxo-4-propan-2-ylphthalazin-2-yl)-N-(5-fluoropyrimidin-4-yl)acetamide] | < 10 µM | 0.382 µM |  |
| CC(C)c1nn(CC(=O)Nc2ncc(C(F)(F)F)cc2F)c(=O)c2ccc(Br)cc12 [Example 41, 2-(6-bromo-1-oxo-4-propan-2-ylphthalazin-2-yl)-N-[3-fluoro-5-(trifluoromethyl)pyridin-2-yl]acetamide] | < 10 µM | 0.163 µM |  |
| CC(C)c1nn(CC(=O)NC(C)C2CCC2)c(=O)c2ccc(Br)cc12 (stereo not drawn) [Example 76, 2-(6-bromo-1-oxo-4-propan-2-ylphthalazin-2-yl)-N-(1-cyclobutylethyl)acetamide] | < 10 µM | 8.06 µM |  |
| CCN1CCC[C@@H](NC(=O)Cn2nc(C(F)(F)F)c3ccc(Br)cc3c2=O)C1 [Example 90, 2-[7-bromo-1-oxo-4-(trifluoromethyl)phthalazin-2-yl]-N-[(3R)-1-ethylpiperidin-3-yl]acetamide] | < 10 µM | 6.74 µM |  |
| CC(C)c1nn(CC(=O)NC(C)c2ccccc2)c(=O)c2ccc(Br)cc12 (stereo not drawn) [Example 72, 2-(6-bromo-1-oxo-4-propan-2-ylphthalazin-2-yl)-N-(1-phenylethyl)acetamide] | < 10 µM | 9.04 µM |  |
| Cc1cc(NC(=O)Cn2nc(C(C)C)c3cc(Br)ccc3c2=O)n(C)n1 [Example 64, 2-(6-bromo-1-oxo-4-propan-2-ylphthalazin-2-yl)-N-(2,5-dimethylpyrazol-3-yl)acetamide] | < 10 µM | 0.392 µM |  |
